Test results as given in the NIST ThermoML archive (doi:10.1021/je700021f).

Assay: xn = mol fraction of the nth substance listed
Settings: 101 kPa, Liquid, Pulse-echo method

CCCCCCCCCCl [1-chlorononane] + CCCCCCCCC
speed of sound [m/s]
Settings | x2 = 0 | x2 = 0.1 | x2 = 0.3 | x2 = 0.5 | x2 = 0.7 | x2 = 0.8 | x2 = 0.85 | x2 = 0.9
293.15 K | 1297.2 | 1283.1 | 1268.5 | 1254.2 | 1243.5 | 1232.8 | 1231.8 | 1222.6
298.15 K | 1278.2 | 1264.2 | 1249 | 1235 | 1223.5 | 1212.9 | 1211.9 | 1203.3
303.15 K | 1259.5 | 1245.4 | 1229.8 | 1215.9 | 1203.6 | 1193 | 1192.1 | 1184.1
308.15 K | 1240.9 | 1226.7 | 1210.6 | 1197 | 1183.9 | 1173.3 | 1172.4 | 1165
313.15 K | 1222.5 | 1208.1 | 1191.7 | 1178.1 | 1164.3 | 1153.7 | 1152.8 | 1145.9
318.15 K | 1204.3 | 1189.7 | 1172.8 | 1159.3 | 1144.9 | 1134.2 | 1133.4 | 1126.9
323.15 K | 1186.3 | 1171.4 | 1154.1 | 1140.6 | 1125.6 | 1114.9 | 1114 | 1107.9
328.15 K | 1168.4 | 1153.2 | 1135.6 | 1122 | 1106.5 | 1095.6 | 1094.7 | 1088.9
333.15 K | 1150.7 | 1135.2 | 1117.1 | 1103.6 | 1087.5 | 1076.5 | 1075.5 | 1070
338.15 K | 1133.2 | 1117.2 | 1098.9 | 1085.2 | 1068.7 | 1057.5 | 1056.4 | 1051.2
343.15 K | 1115.9 | 1099.4 | 1080.7 | 1066.9 | 1050 | 1038.6 | 1037.4 | 1032.4
348.15 K | 1098.8 | 1081.8 | 1062.7 | 1048.7 | 1031.5 | 1019.8 | 1018.5 | 1013.7
353.15 K | 1081.9 | 1064.2 | 1044.9 | 1030.6 | 1013.1 | 1001.1 | 999.7 | 995
358.15 K | 1065.1 | 1046.8 | 1027.2 | 1012.6 | – | – | – | –
